{"source": "patent US7919484B2", "about": "“Combination therapy” (Xenon Pharmaceuticals Inc., priority 2005, dated 2011)", "key": {"[1]": {"assay": "Effect of SCD-1 inhibitor and rosiglitazone co-administration on body weight in ZDF rats (Example 1)", "type": "in vivo, Male Zucker Diabetic Fatty Rats (ZDF)", "conditions": "mean +/- SEM, Rosi 10 mg/kg, XEN103 5 mg/kg daily po; for Final Body Weight: end of treatment", "protocol": "Male Zucker Diabetic Fatty Rats (ZDF) began treatment at the age of 7 weeks of age. Animals were housed three to a cage in a temperature, humidity and light controlled room. The animals were fed a standard rodent diet and had free access to water. Animals were randomized into groups of 9 and placed in the following experimental groups for daily dosing (10:30 am) as described in table 5 below. Animals were weighed three times per week. Food intake was recorded three times per week. XEN 1 is a representative SCD-1 inhibitor compound of the invention. The formulations were: • Vehicle=1% CMC:0.1% Tween 20:10% PG • Rosi-10=rosiglitazone 10 mg/kg in 1% CMC:0.1% Tween 20:10% PG • Rosi-10+XEN1=rosiglitazone 10 mg/kg+XEN1 5 mg/kg in 1% CMC:0.1% Tween 20:10% PG • XEN1=XEN1 5 mg/kg in 1% CMC:0.1% Tween 20:10% PG"}, "SCD enzyme": {"target": "T1, SCD enzyme (Rattus norvegicus, UniProt P07308)", "T1 construct": "indicator of endogenous SCD1 activity; from tissue; host or cells: living male Zucker Diabetic Fatty rats, dosed orally", "T1 sequence (P07308 1-358)": "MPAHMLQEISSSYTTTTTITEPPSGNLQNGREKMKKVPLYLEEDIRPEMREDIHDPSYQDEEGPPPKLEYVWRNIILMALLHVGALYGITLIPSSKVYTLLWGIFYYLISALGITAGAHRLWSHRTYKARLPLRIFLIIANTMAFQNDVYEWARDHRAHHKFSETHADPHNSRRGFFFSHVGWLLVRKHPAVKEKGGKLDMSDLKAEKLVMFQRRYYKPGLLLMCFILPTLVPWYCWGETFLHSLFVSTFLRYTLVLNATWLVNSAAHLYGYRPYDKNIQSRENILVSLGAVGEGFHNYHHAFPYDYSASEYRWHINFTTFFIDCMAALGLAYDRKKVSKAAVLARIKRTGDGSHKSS", "assay": "Plasma desaturation index (DI) in ZDF rats after treatment (Example 2)", "type": "in vivo", "conditions": "plasma triglycerides, mean +/- standard deviation, rosiglitazone 10 mg/kg, XEN1 5 mg/kg", "text": "Another suitable method is to indirectly measure the SCD-1 inhibitors impact on inhibition of SCD enzyme by measuring a subject's desaturation index (‘DI’) after administration of the SCD-1 inhibitors. DI as employed in this specification means the ratio of the product over the substrate for the SCD enzyme as measured from a given tissue sample. This may be calculated using three different equations 18:1n−9/18:0 (oleic acid over stearic acid); 16:1n−7/16:0 (palmitoleic acid over palmitic acid); and/or 16:1n−7+18:1n−7/16:0 (measuring all reaction products of 16:0 desaturation over 16:0 substrate). DI is primarily measured in liver or plasma triglycerides, but may also be measured in other selected lipid fractions from a variety of tissues.\nDesaturation indexes were calculated from the fatty acid profile of circulating plasma triglycerides. […] An additional 0.5 mL of chloroform containing 0.05 mg/mL of glyceryl-triheptadecanoin as an internal standard were also added. Samples were thoroughly vortexed and the phases separated by centrifugation at 2000 rpm for 8 minutes. […]\n3 desaturation indexes were calculated from the chromatograms based on absolute peak areas; the ratio of palmitoleic acid to palmitic acid (C16:1n7/C16:0), the ratio of oleic acid to stearic acid (C18:1n9/C18:0) and the ratio of palmitoleic acid and vaccenic acid to palmitic acid (C16:1n7+C18:1n7/C16:0)."}, "SCD": {"target": "T2, SCD (Homo sapiens, UniProt O00767)", "T2 sequence (O00767 1-359)": "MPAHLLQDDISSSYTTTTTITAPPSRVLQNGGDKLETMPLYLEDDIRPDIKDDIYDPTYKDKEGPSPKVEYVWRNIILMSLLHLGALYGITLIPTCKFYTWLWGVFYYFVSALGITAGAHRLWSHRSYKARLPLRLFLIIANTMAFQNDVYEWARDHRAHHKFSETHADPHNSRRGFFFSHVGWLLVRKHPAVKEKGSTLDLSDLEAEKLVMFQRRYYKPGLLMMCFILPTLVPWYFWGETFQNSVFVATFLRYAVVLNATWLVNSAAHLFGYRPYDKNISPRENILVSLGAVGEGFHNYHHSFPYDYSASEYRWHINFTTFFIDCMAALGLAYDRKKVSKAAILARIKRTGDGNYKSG", "conditions": "known from the art; cited from earlier work"}, "[2]": {"conditions": "cited from earlier work"}}, "data": [{"smiles": "O=C(NCCC1CC1)c1ccc(N2CCN(C(=O)c3cc(F)ccc3C(F)(F)F)CC2)nn1", "note": "[XEN 1]", "values": [{"measurement": "Final Body Weight", "setting": "[1]", "value": "312.2 ± 5.1", "unit": "g"}, {"measurement": "Body Weight Gain - 5 week treatment", "setting": "[1]", "value": "150.7 ± 3.5", "unit": "g"}, {"measurement": "Plasma desaturation index (DI) C16:1n7/C16:0", "setting": "SCD enzyme", "value": "0.043 +/− 0.004"}, {"measurement": "Plasma desaturation index (DI) C18:1n9/C18:0", "setting": "SCD enzyme", "value": "5.874 +/− 0.422"}]}, {"smiles": "CCCCCCCCC1=C(CCCCCCC(=O)O)C1", "note": "[malvalic acid, 7-(2-octylcyclopropenyl)heptanoic acid]", "values": [{"measurement": "Inhibition of SCD activity (in words)", "setting": "SCD", "value": "non-specifically inhibit SCD activity"}]}, {"smiles": "CC(=O)O[C@]1(C(C)=O)CC[C@H]2[C@@H]3C[C@H](C)C4=CC(=O)CC[C@]4(C)[C@H]3CC[C@@]21C", "note": "[medroxyprogesterone acetate]", "values": [{"measurement": "Side Effect: increase in body weight", "setting": "[2]; 6 months", "value": 6.2, "unit": "% increase in"}]}, {"smiles": "N[C@@H]1C[C@H]1c1ccccc1", "note": "(racemic) [Tranylcypromine]", "values": [{"measurement": "Side Effect (in words)", "setting": "[2]; human, in vivo", "value": "Adverse weight"}]}, {"smiles": "CN(CCOc1ccc(CC2SC(=O)NC2=O)cc1)c1ccccn1", "note": "(centres unmarked) [rosiglitazone]", "values": [{"measurement": "Final Body Weight", "setting": "[1]", "value": "485.3 ± 7.3", "unit": "g"}, {"measurement": "Body Weight Gain - 5 week treatment", "setting": "[1]", "value": "321.9 ± 6.5", "unit": "g"}, {"measurement": "Weight gain associated with low-dose treatment", "setting": "[2]; 4 mg/day, after one year treatment", "value": "about 8 kg/year"}]}, {"smiles": "CCCCCCCCC1=C(CCCCCCCC(=O)O)C1", "note": "[Sterculic acid, 8-(2-octylcyclopropenyl)octanoic acid]", "values": [{"measurement": "Inhibition of SCD activity (in words)", "setting": "SCD", "value": "non-specifically inhibit SCD activity"}]}]}
